Source: patent publication US11219607B2, “Methods for suppressing cancer-related cachexia” (Ohio State Innovation Foundation, priority 2013, dated 2022)
“Also recorded” adds a separate entry of the source.

Legend:
[1] = system: MuRF1 mRNA; experiment: qPCR of gastrocnemius muscle, C-26 model: MuRF1; format: in vivo, CD2F1 mice; settings: C-26 tumor-bearing mice, 15 days after tumor cell injection, tumor-bearing/vehicle 25.8±3.9-fold, mean±S.D.
Experimental: (§1) Total RNA was isolated from homogenized gastrocnemius muscles (n=3/group) with TRIzol reagent (Life Technologies, Carlsbad, Calif.) and then purified using the RNAeasy Mini Kit (Qiagen, Valencia, Calif.). qRT-PCR was performed as described previously (42) by using the Bio-Rad CFX96 Real-Time PCR Detection System with iQ SYBR Green Supermix (Bio-Rad, Hercules, Calif.). RNA-seq library generation and data analysis were performed at The Ohio State University Comprehensive Cancer Center (OSUCCC) Nucleic Acid Shared Resource.
(§2) AR-42 was able to restore expression of Atrogin-1 (2.7±0.7-fold) and MuRF1 (1.1±0.2-fold) mRNA to basal levels […].

[2] = system: Atrogin-1/MAFbx mRNA; experiment: qPCR of gastrocnemius muscle, C-26 model: Atrogin-1; format: in vivo, CD2F1 mice; settings: C-26 tumor-bearing mice, 15 days after tumor cell injection, tumor-bearing/vehicle 29.4±3.5-fold, mean±S.D.
Experimental: as §1, §2

[3] = system: C-26 tumor-bearing mice; settings: literature reference (33); cited from earlier work
[4] = system: C-26 tumor-bearing mice; experiment: Survival and body weight comparison of HDAC inhibitors, C-26 model; format: in vivo, CD2F1 mice; settings: vorinostat 50 mg/kg p.o. once daily, romidepsin 0.6 mg/kg i.p. twice weekly, from day 6
Experimental: In one aspect, tumors were established by subcutaneous injection of C-26 cells (0.5×10^6 cells in 0.1 ml) into the right flank of male CD2F1 mice (approximately 6 weeks of age; Harlan Laboratories, Indianapolis, Ind.)(11). Tumor-bearing mice, as well as tumor-free mice serving as non-cachectic controls, were randomized into groups that were treated with either AR-42 (50 mg/kg, p.o. by gavage, every other day; Arno Therapeutics, Inc., Flemington, N.J.) or vehicle (0.5% methylcellulose (w/v) and 0.1% Tween-80 (v/v) in sterile water) starting 6 days after cell injection. To investigate the effect of delayed treatment, treatments with drug and/or vehicle were started 6, 10 and 12 days after cancer cell injection.
In another aspect, the effects of AR-42 were compared to other HDAC inhibitors. […]
The effects of AR-42 were compared to other HDAC inhibitors (i.e., vorinostat and romidepsin) in C-26 tumor-bearing mice. Starting on day 6 after tumor cell injection, mice were treated continuously with AR-42 (50 mg/kg every other day, orally), vorinostat [50 mg/kg once daily, orally (13)], romidepsin [0.6 mg/kg twice weekly, i.p. (14)], or vehicle, until weight loss, as determined by daily body weight measurements and subtraction of tumor mass, reached 20% of starting weight. […]

Compound	MuRF1 mRNA level relative to tumor-free/vehicle control [1] [fold]	Atrogin-1 mRNA level relative to tumor-free/vehicle control [2] [fold]	reversal of muscle loss in C-26 tumor-bearing mice [3]	protective effect on body weight / attenuation of cachexia-induced weight loss [4]
C/C=C1\NC(=O)[C@H]2CSSCC/C=C/[C@H](CC(=O)N[C@H](C(C)C)C(=O)N2)OC(=O)[C@H](C(C)C)NC1=O [romidepsin]	14.6±3.3	19.6±3.1	–	–
CC(/C=C/C(=O)NO)=C\[C@@H](C)C(=O)c1ccc(N(C)C)cc1 [trichostatin-A]	–	–	could not reverse muscle loss	–
CCCC(CCC)C(=O)O [valproic acid]	–	–	could not reverse muscle loss	–
O=C(CCCCCCC(=O)Nc1ccccc1)NO [vorinostat]	5.5±1.1	9.6±1.8	–	limited or no appreciable protective effects; also recorded: ineffective
